Drawing on ChEMBL document CHEMBL1126853, “A series of penicillin-derived C2-symmetric inhibitors of HIV-1 proteinase: structural and modeling studies” (J Med Chem, 1993), this text covers IC50 for seven compounds.

The target of this assay is Human immunodeficiency virus type 1 protease (Human immunodeficiency virus 1, UniProt Q72874). As to the kind of experiment: Inhibitory activity against HIV-1 Protease.
Turning to `CC1(C)S[C@H]([C@H](NC(=O)Cc2ccccc2)C(=O)NCc2ccccc2)NC1C(=O)NCCCNC(=O)[C@@H]1N[C@@H]([C@H](NC(=O)Cc2ccccc2)C(=O)NCc2ccccc2)SC1(C)C` (some centres not stated), the IC50 (usually the concentration needed to halve the response being measured) was found to be 540 nM.

As for `CCNC(=O)[C@@H](NC(=O)c1ccccc1)[C@@H]1NC(C(=O)NCCNC(=O)[C@@H]2N[C@@H]([C@H](NC(=O)c3ccccc3)C(=O)NCC)SC2(C)C)C(C)(C)S1` (some centres not stated), the concentration for half-maximal inhibition (IC50) was 390 nM.

The compound `CCNC(=O)[C@@H](NC(=O)Cc1ccccc1)[C@@H]1NC(C(=O)NCCNC(=O)[C@@H]2N[C@@H]([C@H](NC(=O)Cc3ccccc3)C(=O)NCC)SC2(C)C)C(C)(C)S1` (some centres not stated) had an IC50 of 3 nM.

`CCNC(=O)[C@@H](NC(=O)c1c(-c2ccccc2)noc1C)[C@@H]1NC(C(=O)NCCNC(=O)[C@@H]2N[C@@H]([C@H](NC(=O)c3c(-c4ccccc4)noc3C)C(=O)NCC)SC2(C)C)C(C)(C)S1` (some centres not stated) returned an IC50 of 5.4 nM.

As for `CCNC(=O)[C@@H](NC(=O)c1ccccc1-c1ccccc1)[C@@H]1NC(C(=O)NCCNC(=O)[C@@H]2N[C@@H]([C@H](NC(=O)c3ccccc3-c3ccccc3)C(=O)NCC)SC2(C)C)C(C)(C)S1` (some centres not stated), the IC50 worked out at 9.9 nM.

For `CC1(C)S[C@H]([C@H](NC(=O)Cc2ccccc2)C(=O)NCc2ccccc2)NC1C(=O)NCC(O)CNC(=O)[C@@H]1N[C@@H]([C@H](NC(=O)Cc2ccccc2)C(=O)NCc2ccccc2)SC1(C)C` (some centres not stated), the IC50 came to 5 nM.

Take `CC1(C)S[C@H]([C@H](NC(=O)Cc2ccccc2)C(=O)NCC(F)(F)F)NC1C(=O)NCCNC(=O)[C@@H]1N[C@@H]([C@H](NC(=O)Cc2ccccc2)C(=O)NCC(F)(F)F)SC1(C)C` (some centres not stated): the IC50 came out at 4.4 nM.
